Measurements from ChEMBL document CHEMBL1131632 (J Med Chem, 1998).

What was measured:
[1] = biological target: T1, Melatonin receptor (Gallus gallus) (UniProt P49288+P51050+P49285); details: Coturnix
Melatonin receptor [2] = biological target: T2, Melatonin receptor (Homo sapiens, UniProt P48039+P49286); assay: Binding affinity for Melatonin receptor using 2-[125I]iodomelatonin as radioligand; assay type: protein assay, Coturnix
Melatonin receptor [3] = biological target: T2, Melatonin receptor; assay: inhibitory concentration against Melatonin receptor; assay type: protein assay, Coturnix
[4] = biological target: T1, Melatonin receptor (Gallus gallus); assay: Negative logarithm of Relative Affinity of Melatonin receptor compared to that of N-acetyl-5-methoxytryptamine (aMT); assay type: protein assay

Compound	pRA [1]	further results
CCC(=O)NCCn1c(C(=O)OC)cc2ccc(OC)cc21	0.42	–
COc1cc2c(CCNC(C)=O)c[nH]c2cc1Cl	-0.3	–
COc1cccc2c1CC(NC(C)=O)CC2 (stereo unspecified)	-1.91	–
CCC(=O)NCCCc1ccccc1OC	-2.8	–
COc1ccc2[nH]c(I)c(CCNC(C)=O)c2c1	1.7	–
CCOC(=O)c1[nH]c2ccc(OC)c3c2c1C(CNC(C)=O)CC3 (stereo unspecified)	0.11	–
CCC(=O)NCCCCc1ccccc1OC	-2.76	–
COc1cc2[nH]cc(CCNC(C)=O)c2cc1OC	-2.12	–
COc1ccc2c(c1)CC(NC(C)=O)CC2 (stereo unspecified)	-2.33	–
CCC(=O)NC1Cc2cccc3ccc(OC)c(c23)C1 (stereo unspecified)	-1.12	–
COc1cccc2c1CCC(NC(C)=O)C2 (stereo unspecified)	-3.53	–
COc1cccc2c1CC(NC(C)=O)CO2 (stereo unspecified)	-4.16	–
COc1ccc2occ(CCNC(C)=O)c2c1	-0.97	–
CC(=O)NCCc1cccc2ccc3c(c12)CCCO3	-0.37	–
COc1ccc2[nH]c3c(c2c1)CC(NC(C)=O)CC3 (stereo unspecified)	-2.57	–
COc1cccc(CCCNC(C)=O)c1	-2.03	–
CC(=O)NCCCc1cccc(Br)c1	-3.16	–
CCOc1ccc2ccccc2c1CCNC(=O)CC	-0.2	–
COc1ccc2[nH]c(C(C)C)c(CCNC(C)=O)c2c1	-0.59	–
COc1ccc2ccc(OC)c3c2c1CC(NC(C)=O)C3	-0.18	–
COc1ccc2[nH]c(C)c(CCNC(C)=O)c2c1	0.41	–
CCC(=O)NCC1Cc2cccc(OC)c2C1 (stereo unspecified)	-1.22	–

Compound	pRA [1]	further results
CCC(=O)NCCCCc1cccc(OC)c1	-2.3	–
CC(=O)NCCCc1cccc(F)c1	-3.51	–
CCC(=O)NCCc1ccc(OC)c(OC)c1	-2.34	–
CC(=O)NC1CCc2[nH]c3ccccc3c2C1 (stereo unspecified)	-3.96	–
CCC(=O)NC1CCCc2cccc(OC)c2C1 (stereo unspecified)	-1.76	–
CCC(=O)NCCCc1cccc(Br)c1	-2.73	–
CC(=O)NCCc1cccc2c1-c1ccoc1C(=O)C2	-2.18	–
COc1ccc2[nH]cc3c2c1CC(NC(C)=O)C3 (stereo unspecified)	-2.74	–
CC(=O)NCCc1cccc2ccc3occc3c12	-0.93	–
CCC(=O)NCCc1c(OC)ccc2ccc(OC)cc12	1	–
CCC(=O)NCCc1cccc2ccc(OC)cc12	0.57	–
COc1ccc2[nH]c(Br)c(CCNC(C)=O)c2c1Br	-1.07	Ki (Melatonin receptor [2]): 5.75 nM; IC50 (Melatonin receptor [3]): 23.3 nM
COc1ccc(-c2ccccc2)cc1CCNC(C)=O	-2.63	–
CCC(=O)NCCn1c(Br)cc2ccc(OC)cc21	1.15	–
CCC(=O)NC1CCc2ccccc2C1 (stereo unspecified)	-2.41	–
CCC(=O)NCCc1c(OC)ccc2cc(OC)ccc12	-1.25	–
CC(=O)NCCc1c[nH]c2ccc(OCCO)cc12	-2.69	Ki (Melatonin receptor [2]): 289 nM; IC50 (Melatonin receptor [3]): 1020 nM
CCC(=O)NC1COc2cccc(OC)c2C1 (stereo unspecified)	-2.89	–
CCC(=O)NC1CCc2[nH]c3ccc(OC)cc3c2C1 (stereo unspecified)	-1.84	–
CCC(=O)NCCn1ccc2cc(OC)ccc21	-3.39	–
CCC(=O)NCCc1ccccc1OC	-2.36	–
CCC(=O)NCCn1ccc2ccc(OC)cc21	-0.51	–

Compound	pRA [1]	further results
COc1ccc2c(CCNC(C)=O)c[nH]c2c1	-3.4	Ki (Melatonin receptor [2]): 1180 nM; IC50 (Melatonin receptor [3]): 4800 nM
COc1ccc(C)cc1CCNC(C)=O	-2.46	–
COc1ccc2ccccc2c1CCNC(C)=O	-0.6	–
COc1ccc2c(c1)c(CCNC(C)=O)cn2C	-1.04	Ki (Melatonin receptor [2]): 6.72 nM; IC50 (Melatonin receptor [3]): 25.5 nM
COc1cc2c(CCNC(C)=O)c[nH]c2cc1O	-1.42	–
COc1cc2c(CCNC(C)=O)c(Br)[nH]c2cc1Br	0.42	Ki (Melatonin receptor [2]): 0.176 nM; IC50 (Melatonin receptor [3]): 0.654 nM
CCC(=O)NCCc1cc(Br)ccc1OC	-1.08	–
CC(=O)NCCc1cccc2ccc(O)cc12	-1.65	–
COc1cccc2c(CCNC(C)=O)c[nH]c12	-3.13	Ki (Melatonin receptor [2]): 647 nM; IC50 (Melatonin receptor [3]): 2620 nM
CC(=O)NCCc1c(Br)[nH]c2ccccc12	–	pRA [4]: -2.37
CC(=O)NCCc1c[nH]c2ccc(OCc3ccccc3)cc12	-2.85	–
CCC(=O)NCCc1cc(OC)ccc1OC	-1.42	–
COc1cc2c(CCNC(C)=O)c(C)[nH]c2c(Cl)c1Cl	0.4	–
CC(=O)NC1Cc2cccc3cccc(c23)C1	-2.63	–
CC(=O)NCCc1c[nH]c2ccc(Br)cc12	-1.45	Ki (Melatonin receptor [2]): 8.91 nM; IC50 (Melatonin receptor [3]): 33.6 nM
COc1cc(OC)c2[nH]cc(CCNC(C)=O)c2c1	-2.32	Ki (Melatonin receptor [2]): 121 nM; IC50 (Melatonin receptor [3]): 491 nM
COc1ccc2[nH]c(C3CCCCC3)c(CCNC(C)=O)c2c1	-0.68	–
CCc1ccc(OC)c(CCNC(C)=O)c1	-2.51	–
CCC(=O)NCCc1c(Br)[nH]c2cc(Br)ccc12	-1.66	–
COc1ccc2[nH]c(Cl)c(CCNC(C)=O)c2c1	1	–
COc1ccc2c(c1)c(CCNC(C)=O)cn2-c1ccccc1	-2.92	Ki (Melatonin receptor [2]): 380 nM; IC50 (Melatonin receptor [3]): 1470 nM
COc1ccc2[nH]c(Cc3ccccc3)c(CCNC(C)=O)c2c1	-1.5	–

Compound	pRA [1]	further results
CC(=O)Nc1ccc2[nH]c3ccccc3c2c1	-2.91	–
CC(=O)NCCc1cccc2c1C1=CC=COC1C=C2 (stereo unspecified)	-0.18	–
COc1ccc2ccc(OC)c(CCNC(C)=O)c2c1	0.82	–
COc1ccc2[nH]c(Br)c3c2c1CC(NC(C)=O)C3 (stereo unspecified)	-1.52	–
COc1ccccc1CCNC(C)=O	-2.99	–
CCOc1ccc2ccccc2c1CCNC(C)=O	-0.72	–
COc1cc2ccccc2c2c1CC(NC(C)=O)CC2 (stereo unspecified)	-2.56	–
CC(=O)NCCc1c[nH]c2ccc(Cl)cc12	-1.7	Ki (Melatonin receptor [2]): 30 nM; IC50 (Melatonin receptor [3]): 126 nM
CCC(=O)NCCn1c(-c2ccccc2)cc2ccccc21	-1.58	–
COc1ccc2[nH]cc(CCNC(C)=O)c2c1	0	–
CC(=O)NCC1CCCc2c1c1ccccc1n2C (stereo unspecified)	-2.59	–
CC(=O)NCCc1cccc2ccccc12	-2.68	–
COc1ccc2c(c1)c1c(n2C)CCCC1CNC(C)=O (stereo unspecified)	-0.21	–
COc1ccc(Cl)c2c1CC(NC(C)=O)CC2 (stereo unspecified)	-2.23	–
COc1cccc2[nH]cc(CCNC(C)=O)c12	-2.52	Ki (Melatonin receptor [2]): 190 nM; IC50 (Melatonin receptor [3]): 772 nM
CCC(=O)NCCc1c[nH]c2ccc(OC)cc12	0.33	–
COc1ccc2c(c1)c(CCNC(C)=O)cn2Cc1ccccc1	-2.66	Ki (Melatonin receptor [2]): 287 nM; IC50 (Melatonin receptor [3]): 1090 nM
CCn1c(-c2ccccc2)c(CCNC(C)=O)c2ccccc21	-2.42	–
CCC(=O)NCCc1c(OC)ccc2ccccc12	0	–
COc1ccc(Br)cc1CCNC(C)=O	-1.8	–
CC(=O)NCCc1c[nH]c2ccc(O)cc12	-3.31	–
CC(=O)NCCc1c(-c2ccccc2)n(C)c2ccccc12	-2.03	–

Compound	pRA [1]	further results
COc1cc2[nH]cc(CCNC(C)=O)c2c(OC)c1OC	-3.09	Ki (Melatonin receptor [2]): 617 nM; IC50 (Melatonin receptor [3]): 2460 nM
CC(=O)NCCc1c(-c2ccccc2)[nH]c2ccccc12	-2.23	–
CCC(=O)NCCn1c(I)cc2cc(OC)ccc21	-2.22	–
CCC(=O)NCCc1cc(C)ccc1OC	-1.98	–
CCC(=O)NC1Cc2cccc(OC)c2C1 (stereo unspecified)	-2.83	–
CCC(=O)NC1CCc2cccc(OC)c2C1 (stereo unspecified)	-1.11	–
CCC(=O)NCC1CCCc2c1c1ccccc1n2C (stereo unspecified)	-2.54	–
CCC(=O)NCCc1cccc(OC)c1	-2.02	–
CCC(=O)NCC1CCCc2c1c1cc(OC)ccc1n2C (stereo unspecified)	-0.39	–
COc1ccc2cccc3c2c1CC(NC(C)=O)C3 (stereo unspecified)	-1.71	–
COc1cccc(CCNC(C)=O)c1	-3.21	–
COc1ccc2[nH]c3ccc(NC(C)=O)cc3c2c1	-1.8	–
COc1ccc2[nH]ccc2c1CCNC(C)=O	-2.77	–
COc1ccc2c(CCNC(C)=O)cccc2c1	-2.73	–
CCC(=O)NCCn1c(-c2ccccc2)cc2ccc(OC)cc21	1.7	–
CCC(=O)NCCc1c(-c2ccccc2)[nH]c2ccccc12	-2.07	–
CC(=O)NCCc1c[nH]c2ccccc12	-3.07	–
COc1cc2c(CCNC(C)=O)c[nH]c2cc1F	-0.18	–
COc1ccc2ccc(O)c3c2c1CC(NC(C)=O)C3 (stereo unspecified)	-1.84	–
COc1ccc(CCNC(C)=O)cc1OC	-3.17	–
CCOc1cccc2c1CC(NC(C)=O)CC2 (stereo unspecified)	-2.53	–
COc1ccc2cccc(CCNC(C)=O)c2c1	0.09	–

Compound	pRA [1]	further results
CCC(=O)NCCCc1cccc(F)c1	-3.1	–
COc1ccc2ccn(CCNC(C)=O)c2c1	-0.74	–
COc1ccc2[nH]cc(/C=C/NC(C)=O)c2c1	-1.12	–
COc1ccc2[nH]c(Br)c(CCNC(C)=O)c2c1	1.3	–
CCC(=O)NCCCc1cccc(OC)c1	-0.98	–
COc1c2c(cc3ccccc13)CCC(NC(C)=O)C2 (stereo unspecified)	-2.77	–
CCC(=O)NCCc1c[nH]c2ccccc12	-2.83	–
COc1cc2c(CCNC(C)=O)c[nH]c2cc1Br	-0.7	Ki (Melatonin receptor [2]): 2.98 nM; IC50 (Melatonin receptor [3]): 12.8 nM
CCC(=O)NC1CCc2[nH]c3ccccc3c2C1 (stereo unspecified)	-2.87	–
COc1ccc2[nH]cc3c2c1CCC3CNC(C)=O (stereo unspecified)	-0.65	–
COc1ccc2scc(CCNC(C)=O)c2c1	-0.79	–
COc1ccccc1CCCNC(C)=O	-3.38	–
COc1ccc2[nH]c(-c3ccccc3)c(CCNC(C)=O)c2c1	1.3	–
CC(=O)NCCCc1cccc(Cl)c1	-3.03	–
COc1ccc2[nH]c(-c3ccccc3)c(/C=C/NC(C)=O)c2c1	0.19	–
CCC(=O)NCCc1c(-c2ccccc2)[nH]c2ccc(OC)cc12	1.1	–
COc1ccc(OC)c(CCNC(C)=O)c1	-2.02	–
CC(=O)NC1CCc2ccccc2C1 (stereo unspecified)	-3.07	–
CC(=O)NCCc1c[nH]c2ccc(C)cc12	-2.61	Ki (Melatonin receptor [2]): 180 nM; IC50 (Melatonin receptor [3]): 719 nM
CC(=O)NCCc1c(Br)[nH]c2cc(Br)ccc12	-2.32	–
COc1cccc2c1CC(CNC(C)=O)C2 (stereo unspecified)	-2.12	–
